Results as given in US10828372B2, “Compositions and methods for the inhibition of fibrosis” (WISCONSIN ALUMNI RESEARCH FOUNDATION, priority 2017, dated 2020).
Where two headings read alike, the source gives them in different places. Where no end group is shown, it is not given here.

Legend:
[1] = test system: breast cancer; test: Murine models of breast cancer; settings: mouse, in vivo
[2] = test system: human foreskin fibroblasts, AH1F cells; test: Cell viability of fibroblast monolayers in matrix assembly assays (Cell Titer-Glo / AlamarBlue); format: cell-based; settings: for cell viability: doses ranging from 1 to 20 μM
Protocol: (§1) Microtiter fibronectin matrix assembly assays: Exogenous plasma fibronectin matrix assembly assay: Binding and incorporation of AlexaFluor® 488-plasma fibronectin (A488-FN) to fibroblast monolayers (human foreskin fibroblasts, AH1F cells was carried out using methods known in the art. Briefly, fibroblasts (60000 per well) were allowed to adhere and spread for 2 hours in microtiter plates in 2% fetal calf serum (FCS)-containing DMEM. Peptides or modulators to be tested were added followed by 28 nM A488-FN. Cell monolayers with or without peptides and A488FN were incubated overnight at 37° C. with 5% CO2. Cell monolayers in microwells were washed with PBS or HBSS containing Ca^2+, Mg^2+. Fluorescence in 96-well plates was read using a microplate reader using bottom-readout capabilities at 485 nm excitation and 525 nm emission with 20 nm bandwidths. To estimate cell viability per well after the washes and measurement of fluorescence, an equal volume of luminescence reagent (Cell Titer-Glo®) was added followed by quantification of luminescence. Fluorescence of wells to which A488FN had not been added, i.e. intrinsic fluorescence of the cell monolayer was subtracted from fluorescence values of wells containing ligand. Data is presented respectively for fibronectin fibrillogenesis or cell viability as percent of fluorescence or luminescence values for wells with no peptides. Microplate microscopy was used to ascertain that fluorescence measurements correspond to fibrillary fibronectin.
Endogenous (cellular) fibronectin assembly assay: This immunochemical assay measures the ECM incorporation of EDA-containing fibronectin synthesized by human fibroblasts and human proximal tubular epithelial cells. Human proximal epithelial cells, HK-2 cells, were obtained from ATCC (CRL-2190). The EDA+ fibronectin is a splice variant synthesized and secreted by a variety of cells mostly during embryonic development and during wound healing, ECM remodeling, or fibrotic conditions in the adult. Fibroblasts (AH1F) were cultured in DMEM (Gibco) containing 10% fetal calf serum, and human proximal tubular epithelial cells (HK-2) were cultured in keratinocyte serum free medium (KSFM, containing pituitary extract and rEGF, Invitrogen/Thermo Fisher). Both media also contained 2.5 mM glutamine, 100 IU/ml penicillin, and 100 μg/ml streptomycin. […] Fluorescence of AlamarBlue® was read at 555 nm excitation and 585 nm emission. […] Similar to the measurement of exogenous A488-FN fluorescence, A488-EDA fluorescence was read using microplate reader equipped with bottom-readout capabilities at 485 nm excitation and 525 nm emission. […]

[3] = test system: AlexaFluor 488-plasma fibronectin (A488-FN); test: Microtiter exogenous plasma fibronectin matrix assembly assay (AH1F fibroblasts); format: cell-based, human; settings: for inhibition of fibronectin fibrillogenesis: concentrations up to 20 μM
AlexaFluor 488-plasma fibronectin (A488-FN), sequence (P02751 32-608 limits assumed): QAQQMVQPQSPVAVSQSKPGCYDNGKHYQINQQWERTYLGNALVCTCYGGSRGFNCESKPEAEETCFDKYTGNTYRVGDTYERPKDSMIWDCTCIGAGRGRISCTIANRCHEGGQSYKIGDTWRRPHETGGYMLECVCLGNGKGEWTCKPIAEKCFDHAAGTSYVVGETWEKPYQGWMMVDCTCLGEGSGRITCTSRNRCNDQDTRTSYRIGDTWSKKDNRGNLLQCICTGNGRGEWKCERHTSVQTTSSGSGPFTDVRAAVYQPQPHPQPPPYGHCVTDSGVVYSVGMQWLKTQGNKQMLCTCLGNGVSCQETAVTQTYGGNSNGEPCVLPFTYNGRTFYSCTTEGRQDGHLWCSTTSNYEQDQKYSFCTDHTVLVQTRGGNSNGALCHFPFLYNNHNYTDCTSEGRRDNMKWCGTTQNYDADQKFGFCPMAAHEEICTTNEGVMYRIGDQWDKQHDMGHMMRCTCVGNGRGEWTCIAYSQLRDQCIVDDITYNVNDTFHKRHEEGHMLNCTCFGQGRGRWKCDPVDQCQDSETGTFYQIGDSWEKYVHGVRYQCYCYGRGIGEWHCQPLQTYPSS
Protocol: as §1
To determine whether PEG-FUD retained its ability to inhibit fibronectin fibrillogenesis, PEG-FUD and FUD were compared in cell-based fibronectin matrix assembly assays. The ability of PEG-FUD to inhibit the incorporation of exogenous fibronectin derived from plasma and also of fibronectin endogenously produced by the cultured cells was measured, since fibrosis is likely to contain fibronectin from both sources. Shown in FIG. 12 is the level of fibrils formed from exogenously added A488-FN fibrils in the presence of increasing amounts FUD or PEG-FUD. FIGS. 13 and 14 show endogenous EDA+-fibronectin fibrillogenesis in human fibroblast and human proximal tubular epithelial cells, respectively. In all fluorescence panels, it is evident that PEG-FUD is as efficient as FUD at inhibiting fibronectin assembly dose-dependently with an IC50 of approximately 30 nM. As previously reported, cell viability is negligibly affected by FUD, and PEG-FUD behaves almost identically. There was an approximately 20% decrease in fibroblast viability at the highest concentration of FUD tested (500 nM) with PEG-FUD retaining fibroblast viability almost at 100%. […] Human proximal tubular epithelial cell viability was retained at approximately 100% with treatment by both FUD and PEG-FUD.
Having established the suitability of PEG-FUD as inhibitor of FN fibrillogenesis, a mutated form of FUD, mFUD, was tested as a control peptide. mFUD was PEGylated as described above and the conjugate tested in the exogenous A488-FN binding assay as described for FIG. 1A. […] A maximum concentration of 20 μM was tested because it approximates the concentration used in vivo, both in this study and in the liver fibrosis study.

[4] = exogenous A488-FN, doses up to 20 μM, read-out: IC50 of fibrillogenesis inhibition
[5] = exogenous A488-plasma fibronectin, human fibroblasts, doses up to 500 nM, read-out: IC50 of fibronectin assembly inhibition

Row | Substance | effect on tumor volume [1] | cell viability [2] [%] | decrease in fibroblast viability ([2]; highest concentration tested (500 nM)) | inhibition of assembly of plasma fibronectin by fibroblasts ([3]; doses up to 500 nM) [%] | inhibition of fibronectin fibrillogenesis ([3]; exogenous A488-FN) [%] | IC50 [3, 4] [µM] | IC50 [3, 5] [µM] | fibroblast viability ([2]; doses up to 500 nM)
1 | FUD: 49 amino acid FUD peptide, SEQ ID NO: 1, recombinantly expressed, His-tag removed; inhibitor of fibronectin fibrillogenesis (KDQSPLAGESGETEYITEVYGNQQNPVDIDKKLPNETGFSGNMVETEDT; human) [reference compound] | inhibit tumor volume | 80 | approximately 20% | 70 | 60 | 0.025 to 0.03 | ~0.03 | 
2 | PEG-FUD: PEGylated FUD prepared as in Example 1, PEG size not stated; approximately 27 kDa by mass spectrometry, likely the 20 kDa conjugate (KDQSPLAGESGETEYITEVYGNQQNPVDIDKKLPNETGFSGNMVETEDT; not fully specified (N-terminus); also: PEG size not given here) | inhibit tumor volume | 80 |  | 70 | 60 | 0.025 to 0.03 | ~0.03 | approximately 100%
